# Source: article PMC7007966 (Journal of medicinal chemistry, 2019)
# Entries after “also recorded” stand apart in the source; their conditions may differ.
# What was measured:
# [1] = target: T1, rat MOR (C6-MOR membranes) (Rattus norvegicus, UniProt P33535); experiment: [35S]-GTPγS binding assay; assay type: biochemical; conditions: [35S]-GTPγS stimulation relative to DAMGO
# [2] = target: T2, rat DOR (C6-DOR membranes) (Rattus norvegicus, UniProt P33533); experiment: [35S]-GTPγS binding assay; assay type: biochemical; conditions: for DOR efficacy (in words): [35S]-GTPγS stimulation relative to DPDPE at 10 μM
# [3] = target: T3, human KOR (CHO-KOR membranes) (Homo sapiens, UniProt P41145); experiment: Radioligand competition binding, [3H]-diprenorphine displacement; conditions: competitive displacement of [3H]-diprenorphine, membrane preparations
# [4] = target: T3, human KOR (CHO-KOR membranes); experiment: [35S]-GTPγS binding assay; assay type: biochemical; conditions: [35S]-GTPγS stimulation relative to U69,593 at 10 μM
# [5] = target: T2, rat DOR (C6-DOR membranes); conditions: [35S]-GTPγS stimulation relative to DPDPE; cited from earlier work
# [6] = target: T1, rat MOR (C6-MOR membranes); experiment: Radioligand competition binding, [3H]-diprenorphine displacement; conditions: ratio of binding affinities; 1A-D, 2B, 2D previously reported compounds
smiles,measurement,setting,value
CC(=O)N1CC[C@@H](NC(=O)[C@@H](N)Cc2c(C)cc(O)cc2C)c2cc(Cc3cc4ccccc4o3)ccc21.O=C(O)C(F)(F)F [Compound 2F],MOR efficacy (in words),[1],MOR agonists
same,DOR efficacy (in words),[2],significant efficacy at DOR; also recorded: DOR partial agonists
Cc1cc(O)cc(C)c1C[C@H](N)C(=O)N[C@@H]1CCN(C(=O)c2ccccc2)c2ccc(Cc3ccc4ccccc4c3)cc21.O=C(O)C(F)(F)F [Compound 5B],MOR efficacy (in words),[1],partial MOR efficacy
Cc1cc(O)cc(C)c1C[C@H](N)C(=O)N[C@@H]1CCN(S(C)(=O)=O)c2ccc(CN3CCc4ccccc4C3)cc21.O=C(O)C(F)(F)F [Compound 4D],KOR affinity (in words),[3],relatively high KOR affinity
same,KOR efficacy (in words),[4],relatively high KOR affinity and efficacy
CC(=O)N1CC[C@@H](NC(=O)[C@@H](N)Cc2c(C)cc(O)cc2C)c2cc(Cc3ccc4ccccc4c3)ccc21.O=C(O)C(F)(F)F [Compound 2B],"DOR efficacy (in words), previously reported compounds",[5],DOR antagonist profile
Cc1cc(O)cc(C)c1C[C@H](N)C(=O)N[C@@H]1CCNc2ccc(Cc3ccc4ccccc4c3)cc21.O=C(O)C(F)(F)F [Compound 1B],selectivity for MOR over DOR (DOR Ki/MOR Ki),[6],100 fold
Cc1cc(O)cc(C)c1C[C@H](N)C(=O)N[C@@H]1CCN(C(=O)C2CC2)c2ccc(Cc3cnc4ccccc4c3)cc21.O=C(O)C(F)(F)F [Compound 3C],DOR agonist potency (in words),[2]; [35S]-GTPγS stimulation,subnanomolar
same,DOR efficacy (in words),[2],significant efficacy at DOR
CC(=O)N1CC[C@@H](NC(=O)[C@@H](N)Cc2c(C)cc(O)cc2C)c2cc(Cc3cnc4ccccc4c3)ccc21.O=C(O)C(F)(F)F [Compound 2C],DOR efficacy (in words),[2],significant efficacy at DOR
Cc1cc(O)cc(C)c1C[C@H](N)C(=O)N[C@@H]1CCN(S(C)(=O)=O)c2ccc(Cc3cc4ccccc4o3)cc21.O=C(O)C(F)(F)F [Compound 4F],MOR efficacy (in words),[1],MOR agonists
same,DOR efficacy (in words),[2],DOR antagonists
CC(=O)N1CC[C@@H](NC(=O)[C@@H](N)Cc2c(C)cc(O)cc2C)c2cc(CN3CCc4ccccc4C3)ccc21.O=C(O)C(F)(F)F [Compound 2D],KOR affinity (in words),[3],relatively high KOR affinity
same,KOR efficacy (in words),[4],relatively high KOR affinity and efficacy
Cc1cc(O)cc(C)c1C[C@H](N)C(=O)N[C@@H]1CCN(S(C)(=O)=O)c2ccc(Cc3ccccc3)cc21.O=C(O)C(F)(F)F [Compound 4A],DOR efficacy (in words),[2],partial DOR agonism
Cc1cc(O)cc(C)c1C[C@H](N)C(=O)N[C@@H]1CCN(C(=O)C2CC2)c2ccc(Cc3cc4ccccc4o3)cc21.O=C(O)C(F)(F)F [Compound 3F],MOR efficacy (in words),[1],MOR agonists
same,DOR efficacy (in words),[2],significant efficacy at DOR; also recorded: DOR partial agonists
Cc1cc(O)cc(C)c1C[C@H](N)C(=O)N[C@@H]1CCN(C(=O)C2CC2)c2ccc(Cc3ccccc3)cc21.O=C(O)C(F)(F)F [Compound 3A],DOR efficacy (in words),[2],significant efficacy at DOR
Cc1cc(O)cc(C)c1C[C@H](N)C(=O)N[C@@H]1CCN(C(=O)C2CC2)c2ccc(Cc3ccc4ccccc4c3)cc21.O=C(O)C(F)(F)F [Compound 3B],DOR efficacy (in words),[2],significant efficacy at DOR
Cc1cc(O)cc(C)c1C[C@H](N)C(=O)N[C@@H]1CCN(C(=O)c2ccccc2)c2ccc(Cc3ccc4c(c3)OCCO4)cc21.O=C(O)C(F)(F)F [Compound 5E],MOR efficacy (in words),[1],no significant MOR efficacy
Cc1cc(O)cc(C)c1C[C@H](N)C(=O)N[C@@H]1CCN(C(=O)c2ccccc2)c2ccc(Cc3cc4ccccc4o3)cc21.O=C(O)C(F)(F)F [Compound 5F],MOR efficacy (in words),[1],MOR partial agonist
same,DOR efficacy (in words),[2],DOR antagonist
CC(=O)N1CC[C@@H](NC(=O)[C@@H](N)Cc2c(C)cc(O)cc2C)c2cc(Cc3ccccc3)ccc21.O=C(O)C(F)(F)F [Compound 2A],"DOR efficacy (in words), previously reported compounds",[5],significant efficacy at DOR
Cc1cc(O)cc(C)c1C[C@H](N)C(=O)N[C@@H]1CCN(C(=O)c2ccccc2)c2ccc(Cc3cnc4ccccc4c3)cc21.O=C(O)C(F)(F)F [Compound 5C],MOR efficacy (in words),[1],partial MOR efficacy
Cc1cc(O)cc(C)c1C[C@H](N)C(=O)N[C@@H]1CCNc2ccc(Cc3cc4ccccc4o3)cc21.O=C(O)C(F)(F)F [Compound 1F],MOR efficacy (in words),[1],MOR agonists
same,DOR efficacy (in words),[2],DOR antagonists
Cc1cc(O)cc(C)c1C[C@H](N)C(=O)N[C@@H]1CCNc2ccc(Cc3ccccc3)cc21.O=C(O)C(F)(F)F [Compound 1A],"DOR efficacy (in words), previously reported compounds",[5],low DOR agonist activity
